Assay results from patent JP2005314435A, “循環器疾患治療剤および健康食品” (Individual, priority 2000, dated 2002).

Legend:
Type in all cases: in vivo
[1] = tested on: spontaneously hypertensive rat [自然発症高血圧ラット(SHR)]; assay: Example 1: blood pressure lowering and body weight in spontaneously hypertensive rats (1% saline drinking water)
[2] = tested on: SHR-SP rat, neurological symptoms [SHR−SPに対する神経症状]; assay: Example 2: delay of neurological symptom onset and life prolongation in SHR-SP (1% saline drinking water); settings: for mean number of days from onset to death / mean number of days to death / mean number of days to onset of neurological symptoms: 1.8% in feed
[3] = tested on: WKY rat (Wistar-Kyoto rat) [WKYラット(Wistar-Kyoto rat)]; assay: Example 1: blood pressure and body weight in normotensive WKY rats (1% saline drinking water)
[4] = tested on: spontaneously stroke-developing rat [自然発症脳卒中ラット(SHR-SP)]; assay: Example 2: blood pressure lowering, body weight and mortality in stroke-prone rats (1% saline drinking water); settings: for blood pressure (systolic) / body weight: 1.8% in feed
[5] = tested on: SHR-SP rat, neurological symptoms [SHR−SPに対する神経症状]; assay: Example 3: delay of neurological symptom onset, life prolongation and brain microvessel protection in SHR-SP given 0.003% L-NAME
[6] = tested on: spontaneously stroke-developing rat [自然発症脳卒中ラット (SHR−SP)]; assay: Example 3: blood pressure lowering and body weight in SHR-SP given 0.003% L-NAME drinking water
[7] = FA 1.8% in feed until week 6, then normal feed, week 9
[8] = FA 1.8% in feed until week 6, then normal feed, week 12
[9] = FA 1.8% in feed, pre-value (week 0)
[10] = FA 2.7% in feed until week 6, then normal feed, week 9
[11] = FA 2.7% in feed until week 6, then normal feed, week 12
[12] = FA 2.7% in feed, pre-value (week 0)
[13] = WKY, FA 2.7% in feed until week 6, then normal feed, week 9
[14] = WKY, FA 2.7% in feed until week 6, then normal feed, week 12
[15] = WKY, FA 2.7% in feed, pre-value (week 0)
[16] = FA 2.7% in feed, 8-week observation
[17] = FA 2.7% in feed, n = 6, 8-week observation
[18] = n = 7, listed as FA−Arg塩, L−アルギニン塩
[19] = FA-Arg 1.8% in feed, 8-week observation
[20] = FA-Arg 1.8% in feed, n = 7, 8-week observation
[21] = FA-Arg 1.8% in feed, pre-value (week 0)

SMILES: COc1cc(C=CC(=O)O)ccc1O [FA, フェルラ酸]
- deaths ([1]; FA 1.8% group, at week 9-10 (after change to normal feed at week 6)): 1 cases
- blood pressure (systolic) [1, 7]: 225.6 ±6.1 mmHg
- body weight [1, 7]: 293.8 ± 5.0 g
- blood pressure (systolic) [1, 8]: 233.6 ± 6.0 mmHg
- body weight [1, 8]: 307.0 ± 6.7 g
- blood pressure (systolic) [1, 9]: 128.5 ±2.2 mmHg
- body weight [1, 9]: 135.5 ± 1.8 g
- blood pressure (systolic) ([1]; FA 1.8% in feed, week 6): 201.1 ±6.2 mmHg
- body weight ([1]; FA 1.8% in feed, week 6): 264.8 ± 4.1 g
- blood pressure (systolic) [1, 10]: 211.8 ±3.1 mmHg
- body weight [1, 10]: 292.1 ± 3.0 g
- blood pressure (systolic) [1, 11]: 217.7 ± 4.7 mmHg
- body weight [1, 11]: 309.4 ± 3.1 g
- blood pressure (systolic) [1, 12]: 135.4 ±2.7 mmHg
- body weight [1, 12]: 136.8 ± 1.5 g
- blood pressure (systolic) ([1]; FA 2.7% in feed, week 6): 192.0 ±2.5 mmHg
- body weight ([1]; FA 2.7% in feed, week 6): 239.5 ± 3.4 g
- suppression of body weight (in words) ([1]; FA groups): 体重の有意な抑制がみられた
- blood pressure lowering effect (in words) ([1]; during 6 weeks of administration): 用量依存的に有意な降圧作用を示した
- mean number of days from onset to death ([2]; n = 7): 10.4 ± 0.6 days
- mean number of days to death ([2]; n = 7): 70.0 ± 1.8 days
- mean number of days to onset of neurological symptoms ([2]; n = 7): 59.6 ± 1.4 days
- delay of neurological symptom onset and life prolongation (in words) ([2]; versus control without test substance): 明らかな神経症状発症遅延効果および延命効果を示している
- blood pressure (systolic) [3, 13]: 124.0 ±3.7 mmHg
- body weight [3, 13]: 310.1 ± 7.3 g
- blood pressure (systolic) [3, 14]: 135.5 ± 2.8 mmHg
- body weight [3, 14]: 349.2 ± 12.0 g
- blood pressure (systolic) [3, 15]: 99.5 ±3.1 mmHg
- body weight [3, 15]: 122.2 ± 2.8 g
- blood pressure (systolic) ([3]; WKY, FA 2.7% in feed, week 6): 128.4 ±4.7 mmHg
- body weight ([3]; WKY, FA 2.7% in feed, week 6): 263.2 ± 4.3 g
- suppression of body weight (in words) ([3]; WKY, FA group): 体重の有意な抑制がみられた
- blood pressure lowering effect (in words) ([3]; normotensive WKY rats): 降圧作用を示さず
- blood pressure (systolic) ([4]; pre-value (week 0)): 124.5 ±5.5 mmHg
- body weight ([4]; pre-value (week 0)): 94.0 ± 2.3 g
- blood pressure (systolic) ([4]; week 2): 150.2 ±6.1 mmHg
- body weight ([4]; week 2): 148.8 ± 3.3 g
- blood pressure (systolic) ([4]; week 4): 203.4 ±4.6 mmHg
- body weight ([4]; week 4): 198.2 ± 3.1 g
- body weight ([4]; week 7): 233.0 ± 3.8 g
- blood pressure lowering effect (in words) ([4]; from week 2 on, versus control without test substance): 有意な降圧効果が観察された
- preventive effect (in words) ([5]; 8-week observation, versus control): 明らかな予防効果が見られた
- animals that died / animals used [5, 16]: 0/6
- animals with onset of neurological symptoms / animals used [5, 16]: 0/6
- mean number of days to death [5, 17]: 56.0 ± 0.0 days
- mean number of days to onset of neurological symptoms [5, 17]: 56.0 ± 0.0 days
- mean number of days to onset of neurological symptoms or death (in words) ([5]; from start of administration, versus control): 有意に延長していた
- protection of brain microvessels (in words) ([5]; order FA group, FA-Arg salt group): FA投与群、FA−Arg塩投与群の順で脳内微細血管が保護されたことが示唆された
- blood pressure (systolic) [6, 12]: 115.0 ±4.7 mmHg
- body weight [6, 12]: 107.7 ± 1.9 g
- blood pressure (systolic) ([6]; FA 2.7% in feed, week 2): 141.4 ±3.1 mmHg
- body weight ([6]; FA 2.7% in feed, week 2): 137.6 ± 3.0 g
- blood pressure (systolic) ([6]; FA 2.7% in feed, week 4): 185.1± 1.9 mmHg
- body weight ([6]; FA 2.7% in feed, week 4): 175.9 ± 3.2 g
- blood pressure (systolic) ([6]; FA 2.7% in feed, week 6): 203.1±7.5 mmHg
- body weight ([6]; FA 2.7% in feed, week 6): 195.1 ± 5.0 g
- blood pressure (systolic) ([6]; FA 2.7% in feed, week 8): 207.8± 6.0 mmHg
- body weight ([6]; FA 2.7% in feed, week 8): 213.5 ± 7.4 g

SMILES: COc1cc(C=CC(=O)O)ccc1O [FA−Arg, フェルラ酸−L−アルギニン塩]
- mean number of days from onset to death [2, 18]: 8.2 ± 2.2 days
- mean number of days to death [2, 18]: 73.9 ± 4.7 days
- mean number of days to onset of neurological symptoms [2, 18]: 65.4 ± 4.8 days
- blood pressure (systolic) ([4]; pre-value (week 0), L−アルギニン塩): 122.8 ±4.6 mmHg
- body weight ([4]; pre-value (week 0), L−アルギニン塩): 103.2 ± 3.2 g
- blood pressure (systolic) ([4]; week 2, L−アルギニン塩): 155.2 ±4.6 mmHg
- body weight ([4]; week 2, L−アルギニン塩): 156.7 ± 3.8 g
- blood pressure (systolic) ([4]; week 4, L−アルギニン塩): 196.1 ± 5.8 mmHg
- body weight ([4]; week 4, L−アルギニン塩): 204.4 ± 4.5 g
- body weight ([4]; week 7, L−アルギニン塩): 226.4 ± 10.9 g
- animals that died / animals used [5, 19]: 2/7
- animals with onset of neurological symptoms / animals used [5, 19]: 2/7
- mean number of days to death [5, 20]: 55.0 ± 1.0 days
- mean number of days to onset of neurological symptoms [5, 20]: 54.9 ± 1.1 days
- deaths ([6]; FA-Arg 1.8% in feed, at week 7): 1 cases
- deaths ([6]; FA-Arg 1.8% in feed, at week 8): 1 cases
- blood pressure (systolic) [6, 21]: 116.0 ±4.3 mmHg
- body weight [6, 21]: 102.7 ± 2.9 g
- blood pressure (systolic) ([6]; FA-Arg 1.8% in feed, week 2): 146.4 ±5.0 mmHg
- body weight ([6]; FA-Arg 1.8% in feed, week 2): 179.9 ± 4.0 g
- blood pressure (systolic) ([6]; FA-Arg 1.8% in feed, week 4): 183.6± 5.7 mmHg
- body weight ([6]; FA-Arg 1.8% in feed, week 4): 225.7 ± 3.0 g
- blood pressure (systolic) ([6]; FA-Arg 1.8% in feed, week 6): 205.7±7.7 mmHg
- body weight ([6]; FA-Arg 1.8% in feed, week 6): 244.3 ± 4.2 g
- blood pressure (systolic) ([6]; FA-Arg 1.8% in feed, week 8): 221.8± 7.1 mmHg
- body weight ([6]; FA-Arg 1.8% in feed, week 8): 263.6 ± 6.9 g
